# In article PMC8333062, “Chemical tools for epichaperome-mediated interactome dysfunctions of the central nervous system” (Nature Communications, 2021):
# “And” between values parts separate entries of the source, which are not always exact repeats. Equal values may be shown once.
# Key:
# [1] = test system: MDA-MB-468 tumor and organs; experiment: LC/MS-MS tissue concentration 48 h after 75 mg kg-1 ip; assay type: in vivo; settings: 48 h post 75mg/kg ip, mouse 1-4; listed as PU-HZ151
# [2] = as above; assay type: in vivo; settings: mouse, MDA-MB-468 tumor, intraperitoneal, 75 mg kg^−1, 48 h post 75mg/kg ip, mouse 1-4; read-out: [PU-HZ151] MDA-MB-468 TUMOR
# HER2 in SKBR3 cells = experiment: HER2 degradation; assay type: cell-based, human
# [3] = test system: stress HSP90 from MDA-MB-468 cancer cells; experiment: Binding to stress HSP90; parameters: species or system human; settings: study protocol; read-out: affinity (EC50) for stress HSP90
# CYP2C9 = target: T1, CYP2C9 (Homo sapiens, UniProt P11712); experiment: Cytochrome P450 profiling, sulfaphenazole; assay type: in vitro ADME; settings: for % PU-HZ151 remaining: Sulfaphenazole
# T1 construct: PU-HZ151 (1 µM) was incubated with human liver microsomes (0.5 mg protein mL^−1); tissue Life Technologies HMMCPL; host or cells: human liver microsomes
# T1 sequence (P11712 whole entry): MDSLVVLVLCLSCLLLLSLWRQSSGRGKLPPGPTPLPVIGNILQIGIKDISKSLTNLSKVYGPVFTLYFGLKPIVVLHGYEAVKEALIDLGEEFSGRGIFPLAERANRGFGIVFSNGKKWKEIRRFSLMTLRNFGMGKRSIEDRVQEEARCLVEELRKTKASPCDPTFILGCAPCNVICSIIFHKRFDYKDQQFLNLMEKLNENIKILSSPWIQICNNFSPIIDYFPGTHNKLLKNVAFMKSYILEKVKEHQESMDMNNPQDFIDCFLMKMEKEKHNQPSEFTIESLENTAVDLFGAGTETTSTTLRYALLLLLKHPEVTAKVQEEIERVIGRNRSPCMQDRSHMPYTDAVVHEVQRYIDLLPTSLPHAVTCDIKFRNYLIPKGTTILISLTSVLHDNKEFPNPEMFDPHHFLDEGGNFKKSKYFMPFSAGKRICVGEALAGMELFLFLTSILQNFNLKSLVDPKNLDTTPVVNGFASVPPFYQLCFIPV
# Description: (§1) To identify cytochrome P450 enzymes responsible for PU-HZ151’s metabolism in human liver microsomes the following procedure was followed. Phosphate buffer (100 mM, pH 7.4) was prepared monthly and stored at 4 °C. Frozen stock solutions of human liver microsomes (Life Technologies; Cat# HMMCPL) were used once after thawing and were not refrozen. NADPH stock solution (50 mM) in distilled water was prepared fresh daily. […] The stock solutions of these P450 inhibitors were prepared in DMSO. […] The concentration of the chemical inhibitors used in the assay were furafylline (10 μM), tranylcypromine (2 μM), ketoconazole (1 μM), troleandomycin (20 μM), orphenadrine (50 μM), montelukast (3 μM), sulfaphenazole (10 μM), benzylnirvanol (1 μM), quinidine (1 μM), and 1-aminobenzotriazole (1 mM) for all the P450 enzymes. Timing of the reactions was started following the addition of NADPH/magnesium chloride mix and PU-HZ151. Time-dependent chemical inhibitors (furafylline, troleandomycin, orphenadrine, and 1-aminobenzotriazole) were preincubated with human microsomes in the presence of NADPH and magnesium chloride for 15 min before the addition of PU-HZ151 and timing of reactions was started after addition of PU-HZ151. […] Following brief vortexing and centrifugation, a 200 µL aliquot of the supernatant was transferred to a tube, and 10 µL of haloperidol (1 µg mL^−1) as internal standard was added. Following brief vortexing and centrifugation, 50 µL of supernatant was added to a 96-well plate for subsequent LC-MS/MS analysis. PU-HZ151 was similarly tested as above in the absence of CYP inhibitors for comparative purposes. All samples were assayed in duplicate. […] This was similarly performed for incubations of PU-HZ151 performed in the absence of CYP inhibitor.
# [4] = target: HSP90 pools in JNPL3 (AD transgenic) mouse brain lysate; experiment: Fluorescence polarization (FP) competitive binding, cy3B-GM; settings: read-out: FP relative affinity
# CYP2B6 = target: T2, CYP2B6 (Homo sapiens, UniProt P20813); experiment: Cytochrome P450 profiling, orphenadrine; assay type: in vitro ADME; settings: for % PU-HZ151 remaining: Orphenadrine
# T2 construct: tissue Life Technologies HMMCPL; host or cells: human liver microsomes
# T2 sequence (P20813 1-491): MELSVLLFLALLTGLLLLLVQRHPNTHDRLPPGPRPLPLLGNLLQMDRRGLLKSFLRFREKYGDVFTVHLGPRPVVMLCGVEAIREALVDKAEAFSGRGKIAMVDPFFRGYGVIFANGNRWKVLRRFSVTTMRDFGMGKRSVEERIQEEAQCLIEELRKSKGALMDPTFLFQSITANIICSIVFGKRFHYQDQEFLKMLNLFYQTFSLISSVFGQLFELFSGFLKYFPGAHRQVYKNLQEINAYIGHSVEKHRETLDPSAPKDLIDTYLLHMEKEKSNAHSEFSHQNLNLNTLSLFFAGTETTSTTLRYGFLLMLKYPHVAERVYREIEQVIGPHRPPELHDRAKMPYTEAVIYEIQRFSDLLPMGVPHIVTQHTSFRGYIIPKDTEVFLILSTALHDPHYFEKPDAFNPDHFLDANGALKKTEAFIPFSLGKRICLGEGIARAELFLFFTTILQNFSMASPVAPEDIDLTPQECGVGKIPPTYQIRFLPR
# Description: as §1
# intracranial MDA-MB-468 = experiment: Survival studies in mice; assay type: in vivo, mouse; settings: 50 mg kg^−1 iv, three times per week, n=7
# CYP2C8 = target: T3, CYP2C8 (Homo sapiens, UniProt P10632); experiment: Cytochrome P450 profiling, montelukast; assay type: in vitro ADME; settings: for % PU-HZ151 remaining: Montelukast
# T3 construct: tissue Life Technologies HMMCPL; host or cells: human liver microsomes
# T3 sequence (P10632 1-490): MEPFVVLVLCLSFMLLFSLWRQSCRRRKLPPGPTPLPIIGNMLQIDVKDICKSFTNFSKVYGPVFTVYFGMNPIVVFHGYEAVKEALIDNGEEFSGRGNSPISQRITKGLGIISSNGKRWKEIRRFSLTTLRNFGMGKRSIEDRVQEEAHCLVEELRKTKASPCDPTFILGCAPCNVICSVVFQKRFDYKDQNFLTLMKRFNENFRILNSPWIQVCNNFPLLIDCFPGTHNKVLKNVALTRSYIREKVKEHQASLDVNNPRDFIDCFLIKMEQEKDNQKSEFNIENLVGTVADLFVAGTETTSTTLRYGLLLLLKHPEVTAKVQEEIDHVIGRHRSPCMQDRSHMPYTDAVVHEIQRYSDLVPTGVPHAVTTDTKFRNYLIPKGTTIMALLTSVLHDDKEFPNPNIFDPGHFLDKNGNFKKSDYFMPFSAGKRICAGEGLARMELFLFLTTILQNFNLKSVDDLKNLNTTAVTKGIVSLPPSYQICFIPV
# Description: as §1
smiles,measurement,setting,value
CC(C)(C)CNCCn1c(Sc2cc3c(cc2I)OCO3)nc2c(N)ncnc21 [Compound 85],[PU-HZ151] Liver,[1],0.002 µM
same,[PU-HZ151] MDA-MB-468 TUMOR,[1],1.786 µM and 1.509 µM and 1.067 µM
same,concentration at 48 h,[2],1670 nM
same,IC50,HER2 in SKBR3 cells,8.2 nM
same,EC50,[3],6.9 nM
same,% PU-HZ151 remaining,CYP2C9; 15 min,70.5%
same,% PU-HZ151 remaining,CYP2C9; 30 min,54.1%
same,% PU-HZ151 remaining,CYP2C9; 60 min,36.5%
same,inhibition of PU-HZ151 metabolism,CYP2C9; sulfaphenazole,23%
same,EC50,[4],5 nM
same,% PU-HZ151 remaining,CYP2B6; 15 min,62%
same,% PU-HZ151 remaining,CYP2B6; 30 min,42.7%
same,% PU-HZ151 remaining,CYP2B6; 60 min,25.6%
same,inhibition of PU-HZ151 metabolism,CYP2B6; orphenadrine,10%
same,"survival vs vehicle, log-rank P",intracranial MDA-MB-468,0.0001
same,PAMPA_BBB,PAMPA-BBB permeability; Supplementary Table 6,15.4±2.6
same,"Papp at 16 h, 50 μM","PAMPA-BBB permeability; pig, PAMPA, pH 7.4",15.4 ± 1.3 ×10⁻⁶ cm/s
same,% PU-HZ151 remaining,CYP2C8; 15 min,59.7%
same,% PU-HZ151 remaining,CYP2C8; 30 min,42.1%
same,% PU-HZ151 remaining,CYP2C8; 60 min,22.4%
same,inhibition of PU-HZ151 metabolism,CYP2C8; montelukast,6%
